Experimental data: US20220387404A1, “TREATMENT OF CANCER USING A COMBINATION COMPRISING MULTI-TYROSINE KINASE INHIBITOR AND IMMUNE CHECKPOINT INHIBITOR” (BEIGENE, LTD., priority 2019, published 2022)

How the values were obtained:
[1] = tested on: A431 (epidermal carcinoma) cells; experiment: Combination efficacy in A431 allogeneic mouse model (A431 cells + human PBMC, s.c.); assay type: in vivo, Nod-Scid mice; conditions: Mab-1 10 mg/kg QW i.p., Compound 1 1.5 mg/kg QD P.O.
Experimental: Female Nod-Scid mice were pretreated with cyclophosphamide (in saline, 100 mg/kg intraperitoneal, QD×2) and disulfiram (in 0.8% Tween-80 in saline 125 mg/kg oral gavage, 2 hr after the dose of cyclophosphamide). Two days later, mice with higher body weight were subcutaneously implanted with 2.5×10^6 A431 (epidermal carcinoma) cells and 5×10^6 freshly isolated peripheral blood mononuclear cells (PBMC) on the right flank. After inoculation, mice were randomly assigned into 4 groups with 10 animals in each group according to body weight. Then mice were treated with vehicle (PEG400/0.1N HCL in saline, 40/60), Mab-1, Compound 1, and combination of Mab-1 and Compound 1, respectively. Mab-1 was given at 10 mg/kg once per week (QW) by intraperitoneal (i.p.) injection, and Compound 1 was administered at 1.5 mg/kg once per day (QD) by oral gavage (P.O.). Tumor volume was determined twice weekly in two dimensions using a caliper, and expressed in mm^3 using the formula: V=0.5(a×b^2), where a and b are the long and short diameters of the tumor, respectively.
Data are presented as mean tumor volume±standard error of the mean (SEM). Tumor growth inhibition (TGI) is calculated using the following formula:
treated t=treated tumor volume at time t;treated t0=treated tumor volume at time 0; placebo t=placebo tumor volume at time t; placebo t0=placebo tumor volume at time 0.

[2] = tested on: A20 (B cell lymphoma) cells; experiment: Combination efficacy in A20 syngeneic mouse model; assay type: in vivo, BALB/C mice; conditions: muCh15mt 3 mg/kg QW i.p., Compound 1 5 mg/kg QD P.O.
Experimental: Female BALB/C mice were s.c implanted with 1×10^5 A20 (B cell lymphoma) cells per 150 μl PBS in the right flank. After inoculation, tumor volumes were determined twice weekly in two dimensions using a caliper, and were expressed in mm^3 using the formula: V=0.5(a×b^2) where a and b are the long and short diameters of the tumor, respectively. When tumor volume reached approximately 100 mm^3, mice were randomized into 4 groups with 12 animals in each group according to tumor volume. The mice were then treated with vehicle (PEG400/0.1N HCL in saline, 40/60), muCh15mt, Compound 1, and the combination, respectively. MuCh15mt was given at 3 mg/kg once per week (QW) by intraperitoneal (i.p.) injection, and Compound 1 was administered at 5 mg/kg once per day (QD) by oral gavage (P.O.).
Data are presented as mean tumor volume ±standard error of the mean (SEM). Tumor growth inhibition (TGI) is calculated using the following formula:
(§1) treated t=treated tumor volume at time t treated t0=treated tumor volume at time 0 placebo t=placebo tumor volume at time t placebo t0=placebo tumor volume at time 0

[3] = tested on: MC38 (colon adenocarcinoma) cells; experiment: Combination efficacy in MC38 syngeneic mouse model; assay type: in vivo, BALB/C mice; conditions: muCh15mt 3 mg/kg QW i.p., Compound 1 5 mg/kg QD P.O.
Experimental: Female BALB/C mice were s.c implanted with 1×10^6 MC38 (colon adenocarcinoma) cells per 150 μl PBS in the right flank. After inoculation, mice were randomized into 4 groups with 15 animals in each group. The mice were treated with vehicle (PEG400/0.1N HCL in saline, 40/60), muCh15mt, Compound 1, and the combination treatment of much15mt and Compound 1, respectively. MuCh15mt was given at 3 mg/kg once per week (QW) by intraperitoneal (i.p.) injection, and Compound 1 was administered at 5 mg/kg once per day (QD) for 25 days by oral gavage (P.O.). Tumor volumes were determined twice weekly in two dimensions using a caliper, and were expressed in mm^3 using the formula: V=0.5(a×b^2) where a and b are the long and short diameters of the tumor, respectively.
Data are presented as mean tumor volume+standard error of the mean (SEM). Tumor growth inhihition (TGI) is calculated using the following formula:
as §1

[4] = tested on: CT26WT (colon carcinoma) cells; experiment: Combination efficacy in CT26WT syngeneic mouse model; assay type: in vivo, BALB/c mice; conditions: muCh15mt 3 mg/kg QW i.p., Compound 1 5 mg/kg QD oral gavage
Experimental: Female BALB/c mice were s.c implanted with 2×10^5 CT26WT (colon carcinoma) cells per 150 ul PBS in the right flank. After inoculation, mice were randomized into 4 groups with 12 animals in each group. The mice were treated with vehicle (PEG400/0.1N HCL in saline, 40/60), muCh15mt, Compound 1, and the combination of muCh15mt and Compound 1, respectively. MuCh15mt was given at 3 mg/kg once per week (QW) by intraperitoneal (i.p.) injection, and Compound 1 was administered at 5 mg/kg once per day (QD) by oral gavage. Tumor volume was determined twice weekly in two dimensions using a caliper, and was expressed in mm^3 using the formula: V=0.5(a×b^2) where a and b are the long and short diameters of the tumor, respectively. Data are presented as mean tumor volume 1 standard error of the mean (SEM). Tumor growth inhibition (TGI) is calculated using the following formula:
as §1

## COCCNCc1ccc(-c2cc3nccc(Oc4ccc(NC(=O)C5(C(=O)Nc6ccc(F)cc6)CC5)cc4F)c3s2)nc1 [Compound 1]
[1]
  Mean Tumor Volume on Day 26 (mm^3): 851.5 mm^3
  TGI (%) on Day 26: 37%
[2]; Day 15
  TGI (%) on Day 15: 71%
[2]; Day 18
  Mean Tumor Volume on Day 18 (mm^3): 735.7 mm^3
  Tumor Free Animal % on Day 18: 8.3%
[3]
  Mean Tumor Volume on Day 25 (mm^3): 1089.5 mm^3
  TGI (%) on Day 25: 56%
  Tumor Free Animal % on Day 25: 0%
[4]
  Mean Tumor Volume on Day 28 (mm^3): 723.2 mm^3
  TGI (%) on Day 28: 71%
  Tumor Free Animal (%) on Day 28: 6.7%
